Laboratory results from PubChem BioAssay AID256 (DTP/NCI, 2004).
Several values for one entry are separate records, joined by “and”; a condition that tells them apart may be missing. Identical values can stand only once. Toxic doses and inconclusive results are not listed.

Test system: CD2F1 mice, L1210 leukemia ip, survival T/C
Test: NCI In Vivo Anticancer Drug Screen. Data for tumor model L1210 Leukemia (intraperitoneal) in CD2F1 (CDF1) mice
Details: higher = longer survival
Procedure, shortened: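 Antitumor effect is scored in animals hosting a serially transplanted tumor. Values compare compound-dosed animals against vehicle-only controls as a simple quotient.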

CCCCC(=O)OCC(=O)[C@]1(O)Cc2c(O)c3c(c(O)c2[C@@H](OC2CC(NC(=O)C(F)(F)F)C(O)C(C)O2)C1)C(=O)c1c(OC)cccc1C3=O (some centres not stated)
T/C (endpoint: mean survival time, dose: 4.0 mg/kg/injection, schedule: Q01DX009 (ip), vehicle: Klucel (hydroxypropylcellulose) (HPC)): 113 % of control | T/C (endpoint: mean survival time, dose: 4.0 mg/kg/injection, schedule: Q01DX009 (ip), vehicle: water): 97 % of control | T/C (endpoint: mean survival time, dose: 8.0 mg/kg/injection, schedule: Q01DX009 (ip), vehicle: Klucel (hydroxypropylcellulose) (HPC)): 118 % of control | T/C (endpoint: mean survival time, dose: 8.0 mg/kg/injection, schedule: Q01DX009 (ip), vehicle: water): 101 % of control | T/C (endpoint: mean survival time, dose: 16.0 mg/kg/injection, schedule: Q01DX009 (ip), vehicle: water): 106 % of control | T/C (endpoint: mean survival time, dose: 32.0 mg/kg/injection, schedule: Q01DX009 (ip), vehicle: Klucel (hydroxypropylcellulose) (HPC)): 150 % of control | T/C (endpoint: mean survival time, dose: 32.0 mg/kg/injection, schedule: Q01DX009 (ip), vehicle: water): 111 % of control | T/C (endpoint: mean survival time, dose: 64.0 mg/kg/injection, schedule: Q01DX009 (ip), vehicle: Klucel (hydroxypropylcellulose) (HPC)): 167 % of control | T/C (endpoint: mean survival time, dose: 64.0 mg/kg/injection, schedule: Q01DX009 (ip), vehicle: water): 113 % of control | T/C (endpoint: mean survival time, dose: 128.0 mg/kg/injection, schedule: Q01DX009 (ip), vehicle: Klucel (hydroxypropylcellulose) (HPC)): 250 % of control | T/C (endpoint: median survival time, dose: 13.0 mg/kg/injection, schedule: Q10HX004 (ip), vehicle: other): 100 % of control | T/C (endpoint: median survival time, dose: 21.6 mg/kg/injection, schedule: Q10HX004 (ip), vehicle: other): 102 % of control | T/C (endpoint: median survival time, dose: 36.0 mg/kg/injection, schedule: Q10HX004 (ip), vehicle: other): 114 % of control | T/C (endpoint: median survival time, dose: 60.0 mg/kg/injection, schedule: Q10HX004 (ip), vehicle: other): 118 % of control | T/C (endpoint: median survival time, dose: 100.0 mg/kg/injection, schedule: Q10HX004 (ip), vehicle: other): 153 % of control

CCCC(CCC)=NN=C(CCC)CCC
T/C (endpoint: mean survival time, dose: 25.0 mg/kg/injection, schedule: Q01DX005 (ip), vehicle: saline): 97 % of control | T/C (endpoint: mean survival time, dose: 25.0 mg/kg/injection, schedule: Q01DX009 (ip), vehicle: saline with Tween-80): 95 % of control | T/C (endpoint: mean survival time, dose: 50.0 mg/kg/injection, schedule: Q01DX005 (ip), vehicle: saline): 97 % of control | T/C (endpoint: mean survival time, dose: 50.0 mg/kg/injection, schedule: Q01DX009 (ip), vehicle: saline with Tween-80): 106 % of control | T/C (endpoint: mean survival time, dose: 50.0 mg/kg/injection, schedule: Q04DX002 (ip), vehicle: saline + alcohol): 95 % of control | T/C (endpoint: mean survival time, dose: 100.0 mg/kg/injection, schedule: Q01DX005 (ip), vehicle: saline): 105 % of control | T/C (endpoint: mean survival time, dose: 100.0 mg/kg/injection, schedule: Q01DX009 (ip), vehicle: saline with Tween-80): 91 % of control | T/C (endpoint: mean survival time, dose: 100.0 mg/kg/injection, schedule: Q04DX002 (ip), vehicle: saline + alcohol): 92 % of control | T/C (endpoint: mean survival time, dose: 200.0 mg/kg/injection, schedule: Q01DX005 (ip), vehicle: saline): 97 % of control | T/C (endpoint: mean survival time, dose: 200.0 mg/kg/injection, schedule: Q01DX009 (ip), vehicle: saline with Tween-80): 93 % of control | T/C (endpoint: mean survival time, dose: 200.0 mg/kg/injection, schedule: Q04DX002 (ip), vehicle: saline + alcohol): 88 % of control

O=C[c-]1[c-][c-][c-][c-]1.[Fe+2].[c-]1[c-][c-][cH-][c-]1
T/C (endpoint: mean survival time, dose: 100.0 mg/kg/injection, schedule: Q01DX001 (ip), vehicle: saline with Tween-80): 117 % of control | T/C (endpoint: mean survival time, dose: 200.0 mg/kg/injection, schedule: Q01DX001 (ip), vehicle: saline with Tween-80): 100 % of control

CSc1ccc(NC(=O)C(O)C(O)C(O)C(O)CO)cc1 (configuration not stated)
T/C (endpoint: mean survival time, dose: 100.0 mg/kg/injection, schedule: Q01DX009 (ip), vehicle: saline): 103 % of control | T/C (endpoint: mean survival time, dose: 200.0 mg/kg/injection, schedule: Q01DX009 (ip), vehicle: saline): 113 % of control | T/C (endpoint: mean survival time, dose: 400.0 mg/kg/injection, schedule: Q01DX009 (ip), vehicle: saline): 102 % of control

O=C1c2ccccc2C(=O)N1C1CCCCC1
T/C (endpoint: mean survival time, dose: 100.0 mg/kg/injection, schedule: Q04DX003 (ip), vehicle: saline with Tween-80): 100 % of control | T/C (endpoint: mean survival time, dose: 200.0 mg/kg/injection, schedule: Q04DX003 (ip), vehicle: saline with Tween-80): 95 % of control | T/C (endpoint: mean survival time, dose: 400.0 mg/kg/injection, schedule: Q04DX003 (ip), vehicle: saline with Tween-80): 95 % of control

COc1ccccc1C(=O)NS(=O)(=O)c1ccc(Cl)cc1
T/C (endpoint: mean survival time, dose: 100.0 mg/kg/injection, schedule: Q01DX009 (ip), vehicle: acetone): 101 % of control | T/C (endpoint: mean survival time, dose: 200.0 mg/kg/injection, schedule: Q01DX009 (ip), vehicle: acetone): 107 % of control

CC(O)CN=C(N)C(N)=NCC(C)O (configuration not stated)
T/C (endpoint: mean survival time, dose: 12.5 mg/kg/injection, schedule: Q04DX002 (ip), vehicle: saline with Tween-80): 108 % of control | T/C (endpoint: mean survival time, dose: 25.0 mg/kg/injection, schedule: Q04DX002 (ip), vehicle: saline with Tween-80): 101 % of control | T/C (endpoint: mean survival time, dose: 50.0 mg/kg/injection, schedule: Q04DX002 (ip), vehicle: saline with Tween-80): 97 % of control

CCOc1cc2c(cc1C(C)c1ccc(OC)cc1)OCO2 (configuration not stated)
T/C (endpoint: median survival time, dose: 12.5 mg/kg/injection, schedule: Q01DX009 (ip), vehicle: distilled water + alcohol): 103 % of control | T/C (endpoint: median survival time, dose: 25.0 mg/kg/injection, schedule: Q01DX009 (ip), vehicle: distilled water + alcohol): 93 % of control and 104 % of control | T/C (endpoint: median survival time, dose: 50.0 mg/kg/injection, schedule: Q01DX009 (ip), vehicle: distilled water + alcohol): 115 % of control and 98 % of control | T/C (endpoint: median survival time, dose: 100.0 mg/kg/injection, schedule: Q01DX009 (ip), vehicle: distilled water + alcohol): 98 % of control and 108 % of control | T/C (endpoint: median survival time, dose: 200.0 mg/kg/injection, schedule: Q01DX009 (ip), vehicle: distilled water + alcohol): 111 % of control

NCc1ccncc1
T/C (endpoint: mean survival time, dose: 100.0 mg/kg/injection, schedule: Q04DX002 (ip), vehicle: saline): 106 % of control | T/C (endpoint: mean survival time, dose: 200.0 mg/kg/injection, schedule: Q04DX002 (ip), vehicle: saline): 95 % of control | T/C (endpoint: mean survival time, dose: 400.0 mg/kg/injection, schedule: Q04DX002 (ip), vehicle: saline): 98 % of control
